Structures are written as SMILES.

The data set in a line: Solubility of the bifunctional linker in solvents. Type of data set: physicochemical.

As to `C#CCOC(=O)c1ccc(C=O)c(C=O)c1` [Ib, Prop-2-yn-1-yl 3,4-diformylbenzoate], the solubility entry (in DMSO or methanol) is given as “soluble” and the solubility entry (in hexanes or water) is “limited solubility”.
